The text below walks through data of patent US20100267954A1, “PROCESS FOR THE PURIFICATION OF PALIPERIDONE” (DIPHARMA FRANCIS S.r.l., priority 2009, published 2010).

Counter-ions that a name gives are not always drawn.

The nature of series [1]: solubility in water (descriptive statement). It is filed as physicochemical. Conditions: crystalline solid.
The conditions of series [2]: compared with Form II, hydrate form and solvate form; per EMEA document; cited from earlier work.

As for `Cc1nc2n(c(=O)c1CCN1CCC(c3noc4cc(F)ccc34)CC1)CCCC2O` (stereo not drawn) [paliperidone hydrochloride, 3-[2-[4-(6-fluoro-1,2-benzoisoxazol-3-yl)-1-piperidinyl]ethyl-6,7,8,9-tetrahydro-9-hydroxy-2-methyl-4H-pyrido[1,2-a]-pyrimidin-4-one hydrochloride], the solubility in water result in series [1] is given as “poorly soluble in water”.

For `Cc1nc2n(c(=O)c1CCN1CCC(c3noc4cc(F)ccc34)CC1)CCCC2O` (racemic) [paliperidone Form I, (±)-3-[2-[4-(6-fluoro-1,2-benzoisoxazol-3-yl)-1-piperidinyl]ethyl-6,7,8,9-tetrahydro-9-hydroxy-2-methylpropanediol-4H-pyrido[1,2-a]pyrimidin-4-one], the solubility in water result in series [1] is “poorly soluble in water”. Moreover, the “thermodynamic stability among crystalline forms” value in series [2] is “most thermodynamically stable”.
